Active and inactive are the calls of the source. The calls are words filed in the database; no cut-off is given here.
Key:
[1] = Retention time of the compound by HPLC analysis; type: physicochemical
[2] = Chemical stability of the compound in phosphate buffer saline assessed as half life at pH 7.3 by HPLC analysis; type: physicochemical; conditions: phosphate buffered saline
[3] = Prodrug conversion in pH 7.3 phosphate buffer assessed as ((2S,5R)-5-(5-methyl-2,4-dioxo-3,4-dihydropyrimidin-1(2H)-yl)-2,5-dihydrofuran-2-yl)methyl dihydrogen phosphate formation by measuring half life in presence of pig liver esterase by HPLC analysis; type: ADME
[4] = Prodrug conversion in human CEM/0 cell extract assessed as metabolite formation by measuring half life by HPLC analysis; type: ADME; conditions: ccrf-cem
[5] = Prodrug conversion in human CEM/0 cell extract assessed as ((2S,5R)-5-(5-methyl-2,4-dioxo-3,4-dihydropyrimidin-1(2H)-yl)-2,5-dihydrofuran-2-yl)methyl tri-hydrogen diphosphate formation by HPLC analysis; type: ADME; conditions: ccrf-cem
[6] = Prodrug conversion in human CEM/0 cell extract assessed as ((2S,5R)-5-(5-methyl-2,4-dioxo-3,4-dihydropyrimidin-1(2H)-yl)-2,5-dihydrofuran-2-yl)methyl dihydrogen phosphate formation by HPLC analysis; type: ADME; conditions: ccrf-cem
[7] = system: Human immunodeficiency virus 1; test: Antiviral activity against HIV-1 HE infected in wild-type human CEM/0 cells assessed as inhibition of virus-induced cytopathic effect incubated for 4 to 5 days by light microscopic analysis; type: functional, organism-based; conditions: Human immunodeficiency virus 1, HE, CCRF-CEM
[8] = system: Human immunodeficiency virus 2; test: Antiviral activity against HIV-2 ROD infected in wild-type human CEM/0 cells assessed as inhibition of virus-induced cytopathic effect incubated for 4 to 5 days by light microscopic analysis; type: functional, organism-based; conditions: Human immunodeficiency virus 2, ROD, CCRF-CEM
[9] = system: Human immunodeficiency virus 2; test: Antiviral activity against HIV-2 ROD infected in thymidine kinase-deficient human CEM cells assessed as inhibition of virus-induced cytopathic effect incubated for 4 to 5 days by light microscopic analysis; type: functional, organism-based; conditions: Human immunodeficiency virus 2, ROD, CCRF-CEM
[10] = Cytotoxicity against human CEM cells assessed as reduction in cell viability incubated for 4 to 5 days by light microscopic analysis; type: toxicity, cell-based; conditions: CEM cells (CCRF-CEM), time 4-5 day
[11] = Selectivity index, ratio of CC50 for human CEM cells to EC50 for HIV-2 ROD infected in thymidine kinase-deficient human CEM cells; type: toxicity; conditions: read-out: Ratio CC50/EC50
[12] = system: Human immunodeficiency virus; test: Substrate activity at HIV reverse transcriptase measured after 4 hrs by electrophoresis based primer extension assay
[13] = target: T1, DNA polymerase alpha catalytic subunit (Homo sapiens) (UniProt P09884); test: Substrate activity at human DNA polymerase alpha measured after 4 hrs by electrophoresis based primer extension assay
T1 sequence (whole entry): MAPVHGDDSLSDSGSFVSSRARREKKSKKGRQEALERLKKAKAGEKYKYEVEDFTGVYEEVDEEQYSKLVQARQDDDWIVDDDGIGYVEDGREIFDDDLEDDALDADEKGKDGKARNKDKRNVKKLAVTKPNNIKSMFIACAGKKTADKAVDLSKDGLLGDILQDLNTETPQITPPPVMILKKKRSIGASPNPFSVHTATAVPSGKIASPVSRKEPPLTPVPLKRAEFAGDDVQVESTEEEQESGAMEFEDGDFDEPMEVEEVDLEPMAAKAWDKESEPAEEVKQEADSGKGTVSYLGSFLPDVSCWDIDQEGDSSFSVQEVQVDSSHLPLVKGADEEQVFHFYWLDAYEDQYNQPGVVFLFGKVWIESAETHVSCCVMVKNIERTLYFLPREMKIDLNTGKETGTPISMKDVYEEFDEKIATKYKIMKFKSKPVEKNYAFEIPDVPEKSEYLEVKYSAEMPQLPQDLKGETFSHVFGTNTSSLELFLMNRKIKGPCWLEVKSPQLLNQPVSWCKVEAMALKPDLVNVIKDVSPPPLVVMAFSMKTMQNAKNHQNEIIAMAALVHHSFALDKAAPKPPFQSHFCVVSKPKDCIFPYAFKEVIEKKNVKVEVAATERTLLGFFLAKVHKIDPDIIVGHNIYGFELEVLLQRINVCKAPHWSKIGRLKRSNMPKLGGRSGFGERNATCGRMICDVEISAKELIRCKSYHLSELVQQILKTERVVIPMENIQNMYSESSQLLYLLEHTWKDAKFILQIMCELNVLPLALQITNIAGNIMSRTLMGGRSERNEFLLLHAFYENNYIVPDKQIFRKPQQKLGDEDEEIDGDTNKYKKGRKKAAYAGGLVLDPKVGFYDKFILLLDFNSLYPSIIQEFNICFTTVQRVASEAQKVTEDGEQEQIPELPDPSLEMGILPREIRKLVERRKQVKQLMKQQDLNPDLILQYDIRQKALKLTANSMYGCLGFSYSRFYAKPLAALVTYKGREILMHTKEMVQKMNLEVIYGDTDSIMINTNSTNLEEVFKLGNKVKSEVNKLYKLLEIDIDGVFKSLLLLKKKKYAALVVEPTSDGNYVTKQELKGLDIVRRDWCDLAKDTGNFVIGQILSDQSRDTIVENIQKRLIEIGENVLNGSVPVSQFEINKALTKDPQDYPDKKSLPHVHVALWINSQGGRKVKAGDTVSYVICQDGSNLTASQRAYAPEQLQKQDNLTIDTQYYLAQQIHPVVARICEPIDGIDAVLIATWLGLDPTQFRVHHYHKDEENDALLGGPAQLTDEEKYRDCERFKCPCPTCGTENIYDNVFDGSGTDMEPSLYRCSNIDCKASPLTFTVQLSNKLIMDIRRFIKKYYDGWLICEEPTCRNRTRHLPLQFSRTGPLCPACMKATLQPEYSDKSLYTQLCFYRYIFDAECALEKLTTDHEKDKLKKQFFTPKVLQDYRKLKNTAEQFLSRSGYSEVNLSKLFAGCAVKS

[14] = target: DNA polymerase beta (Homo sapiens) (UniProt P06746); test: Substrate activity at human DNA polymerase beta measured after 4 hrs by electrophoresis based primer extension assay
[15] = target: T2, DNA polymerase subunit gamma-1 (Homo sapiens) (UniProt P54098); test: Substrate activity at human DNA polymerase gamma measured after 4 hrs by electrophoresis based primer extension assay
T2 sequence (whole entry): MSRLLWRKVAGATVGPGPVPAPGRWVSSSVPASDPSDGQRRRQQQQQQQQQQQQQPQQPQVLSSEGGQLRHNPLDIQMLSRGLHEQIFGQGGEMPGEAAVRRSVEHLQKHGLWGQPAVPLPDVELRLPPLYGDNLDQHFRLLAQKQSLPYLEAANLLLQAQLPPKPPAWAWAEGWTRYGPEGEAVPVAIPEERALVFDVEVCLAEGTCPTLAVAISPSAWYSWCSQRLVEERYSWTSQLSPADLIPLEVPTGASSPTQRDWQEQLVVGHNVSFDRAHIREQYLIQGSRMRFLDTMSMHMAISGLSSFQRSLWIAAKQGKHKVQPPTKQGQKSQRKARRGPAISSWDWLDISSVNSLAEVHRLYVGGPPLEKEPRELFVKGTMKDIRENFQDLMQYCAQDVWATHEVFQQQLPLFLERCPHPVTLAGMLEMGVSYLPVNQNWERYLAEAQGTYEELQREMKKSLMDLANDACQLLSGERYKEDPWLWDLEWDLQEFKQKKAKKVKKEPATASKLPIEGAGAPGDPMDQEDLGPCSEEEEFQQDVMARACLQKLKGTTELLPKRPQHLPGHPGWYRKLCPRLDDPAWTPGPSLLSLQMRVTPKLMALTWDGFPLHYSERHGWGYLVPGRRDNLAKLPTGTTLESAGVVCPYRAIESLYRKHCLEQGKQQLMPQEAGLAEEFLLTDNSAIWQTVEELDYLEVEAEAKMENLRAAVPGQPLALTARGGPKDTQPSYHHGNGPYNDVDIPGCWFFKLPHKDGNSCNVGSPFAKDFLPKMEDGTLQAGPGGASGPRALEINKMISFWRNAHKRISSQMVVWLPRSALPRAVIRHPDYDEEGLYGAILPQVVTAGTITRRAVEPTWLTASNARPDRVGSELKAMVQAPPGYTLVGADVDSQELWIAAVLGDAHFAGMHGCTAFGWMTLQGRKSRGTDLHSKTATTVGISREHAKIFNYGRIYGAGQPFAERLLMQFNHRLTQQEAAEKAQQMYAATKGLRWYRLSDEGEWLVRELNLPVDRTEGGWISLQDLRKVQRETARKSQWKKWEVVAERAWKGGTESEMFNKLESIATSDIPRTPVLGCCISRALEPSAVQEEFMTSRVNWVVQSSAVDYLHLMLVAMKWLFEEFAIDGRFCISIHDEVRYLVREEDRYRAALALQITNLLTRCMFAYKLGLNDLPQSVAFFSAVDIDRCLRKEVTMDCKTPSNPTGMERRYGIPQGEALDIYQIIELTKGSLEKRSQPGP

[16] = Chemical stability of the compound in phosphate buffer assessed as half life at pH 7.3 by HPLC analysis; type: physicochemical
[17] = Prodrug conversion in pH 7.3 phosphate buffer assessed as ((2S,5R)-5-(5-methyl-2,4-dioxo-3,4-dihydropyrimidin-1(2H)-yl)-2,5-dihydrofuran-2-yl)methyl tri-hydrogen diphosphate formation by measuring half life in presence of pig liver esterase by HPLC analysis; type: ADME
[18] = Prodrug conversion in human CEM/0 cell extract assessed as ((2S,5R)-5-(5-methyl-2,4-dioxo-3,4-dihydropyrimidin-1(2H)-yl)-2,5-dihydrofuran-2-yl)methyl tetrahydrogen triphosphate formation by HPLC analysis; type: ADME; conditions: ccrf-cem
[19] = system: Human immunodeficiency virus 1; test: Potency index, ratio of 3'-deoxy-2',3'-dehydrothymidine EC50 to compound EC50 for antiviral activity against HIV-1 HE infected in wild-type human CEM/0 cells; type: functional
[20] = system: Human immunodeficiency virus 2; test: Potency index, ratio of 3'-deoxy-2',3'-dehydrothymidine EC50 to compound EC50 for antiviral activity against HIV-2 ROD infected in wild-type human CEM/0 cells; type: functional
[21] = system: Human immunodeficiency virus 2; test: Potency index, ratio of 3'-deoxy-2',3'-dehydrothymidine EC50 to compound EC50 for antiviral activity against HIV-2 ROD infected in thymidine kinase-deficient human CEM[…] cells; type: functional

Question: For `CCCCCCCCCCCCCCCCCCOP(=O)(OCCCC)OP(=O)(O)OC[C@@H]1C=C[C@H](n2cc(C)c(=O)[nH]c2=O)O1.N` (stereo partly specified), which Retention_time [1] is on record?
Answer: Its Retention_time is 18.9 min.

Question: And the half-life [2]?
Answer: Its half-life is > 1000 h.

Question: And the t1/2 [3]?
Answer: The t1/2 was > 150 h.

Question: What about the t1/2 [4] of the same molecule?
Answer: The t1/2 was > 18 h.

Question: And the Drug metabolism [5]?
Answer: The Drug metabolism was “Metabolite_Notdetected”.

Question: What about the Drug metabolism [6] of the same molecule?
Answer: Its Drug metabolism is “Metabolite_Detected”.

Question: And the EC50 [7]?
Answer: Its EC50 is 0.033 µM.

Question: What about the EC50 [8] of the same molecule?
Answer: The EC50 was 0.004 µM.

Question: What about the EC50 [9] of the same molecule?
Answer: The EC50 was 0.001 µM.

Question: And the CC50 [10]?
Answer: The CC50 was 41.3 µM.

Question: What about the selectivity ratio [11] of the same molecule?
Answer: The selectivity ratio was 37500.

Question: What about the Activity [12] of the same molecule?
Answer: Its Activity is “inactive”.

Question: And the Activity [13]?
Answer: The Activity was “inactive”.

Question: And the Activity [14]?
Answer: The Activity was “inactive”.

Question: What about the Activity [15] of the same molecule?
Answer: Its Activity is “inactive”.

Question: What does the source list for `CCCCCCCCCCCCCCCCCCOP(=O)(OCCCC)OP(=O)(O)OP(=O)(O)OC[C@@H]1C=C[C@H](n2cc(C)c(=O)[nH]c2=O)O1.N.N` (stereo partly specified)?
Answer: Retention_time [1]: 16.2 min; half-life [16]: 990 h; t1/2 [17]: > 150 h; t1/2 [4]: > 10 h; Drug metabolism [5]: Metabolite_Detected; Drug metabolism [18]: Metabolite_Notdetected; CC50 [10]: 30 µM; selectivity ratio [11]: 938; Activity [12]: Active; Activity [13]: inactive; Activity [14]: inactive; Activity [15]: inactive; Ratio EC50 [19]: 4; Ratio EC50 [20]: 4; Ratio EC50 [21]: 10000

Question: With `CCCCCCCCCCCCCCCCCCP(=O)(OCCCC)OP(=O)(O)OP(=O)(O)OC[C@@H]1C=C[C@H](n2cc(C)c(=O)[nH]c2=O)O1.N.N` (stereo partly specified) as the molecule, how does the Retention_time [1] read?
Answer: The Retention_time was 15.9 min.

Question: And the half-life [16]?
Answer: Its half-life is > 1700 h.

Question: And the t1/2 [17]?
Answer: Its t1/2 is > 150 h.

Question: What about the t1/2 [4] of the same molecule?
Answer: The t1/2 was > 15 h.

Question: And the Drug metabolism [5]?
Answer: Its Drug metabolism is “Metabolite_Detected”.

Question: What about the Drug metabolism [18] of the same molecule?
Answer: The Drug metabolism was “Metabolite_Notdetected”.

Question: What about the CC50 [10] of the same molecule?
Answer: Its CC50 is 33 µM.

Question: What about the Activity [12] of the same molecule?
Answer: Its Activity is “inactive”.

Question: What about the Activity [13] of the same molecule?
Answer: The Activity was “inactive”.

Question: And the Activity [14]?
Answer: Its Activity is “inactive”.

Question: What about the Activity [15] of the same molecule?
Answer: The Activity was “inactive”.
